Source: US8501805B2, “Substituted alpha-L-bicyclic nucleosides” (Isis Pharmaceuticals, Inc., priority 2008, dated 2013)
[αh] = substituted alpha-L-bicyclic nucleoside, publication subscript αh; [αj] = substituted alpha-L-bicyclic nucleoside, publication subscript αj; [αl] = substituted alpha-L-bicyclic nucleoside, publication subscript αl; [αm] = substituted alpha-L-bicyclic nucleoside, publication subscript αm; [αg] = code of the source, not defined here; d = 2'-deoxy (DNA)

Test: 12mer Tm study
Assay type: binding
Details: for Tm (° C.): all linkages phosphodiester; for ΔTm/mod (° C.): change in Tm per modification
Description: All internucleoside linkages are phosphodiester and all nucleosides not followed by a subscript are 2′-deoxyribonucleosides. The nucleosides followed by a subscript are defined below.

Row | Substance | Tm (° C.) | ΔTm/mod (° C.)
1 | 07/438704: 12mer GCGTTUTTTGCT, all 2′-deoxyribonucleosides, all linkages phosphodiester (DNA, all phosphodiester, methylation of C not given here) [reference compound] | 46.7 °C | +0.0 °C
2 | 07/438711: 12mer GCGTTUαlTTTGCT, all linkages phosphodiester (GCGTTUTTTGCT; sugars from the 5' end d5 [αl]1 d6, all phosphodiester, methylation of C not given here) [reference compound] | 50.2 °C | +4.6 °C
3 | 07/449244: 12mer GCGTTUαjTTTGCT, all linkages phosphodiester (GCGTTUTTTGCT; sugars from the 5' end d5 [αj]1 d6, all phosphodiester, methylation of C not given here) | 46.7 °C | +1.1 °C
4 | 07/449245: 12mer GCGTTUαjTαjTTGCT, all linkages phosphodiester (GCGTTUTTTGCT; sugars from the 5' end d5 [αj]2 d5, all phosphodiester, methylation of C not given here) | 47.1 °C | +1.0 °C
5 | 07/449246: 12mer GCGTTUαhTTTGCT, all linkages phosphodiester (GCGTTUTTTGCT; sugars from the 5' end d5 [αh]1 d6, all phosphodiester, methylation of C not given here) | 49.0 °C | +3.4 °C
6 | 07/449247: 12mer GCGTTUαhTαhTTGCT, all linkages phosphodiester (GCGTTUTTTGCT; sugars from the 5' end d5 [αh]2 d5, all phosphodiester, methylation of C not given here) | 53.7 °C | +4.1 °C
7 | 07/454306: 12mer GCGTTUαlTαlTTGCT, all linkages phosphodiester (GCGTTUTTTGCT; sugars from the 5' end d5 [αl]2 d5, all phosphodiester, methylation of C not given here) [reference compound] | 45.6 °C | +4.6 °C
8 | 07/454307: 12mer GCGTTUαmTTTGCT, all linkages phosphodiester (GCGTTUTTTGCT; sugars from the 5' end d5 [αm]1 d6, all phosphodiester, methylation of C not given here) | 51.3 °C | +5.5 °C
9 | 07/454308: 12mer GCGTTUαmTαmTTGCT, all linkages phosphodiester (GCGTTUTTTGCT; sugars from the 5' end d5 [αm]2 d5, all phosphodiester, methylation of C not given here) | 55.2 °C | +4.8 °C
10 | 07/454309: 12mer GCGTTUαgTTTGCT, all linkages phosphodiester (GCGTTUTTTGCT; sugars from the 5' end d5 [αg]1 d6, all phosphodiester, methylation of C not given here) | 49.7 °C | +4.2 °C
11 | 07/454310: 12mer GCGTTUαgTαgTTGCT, all linkages phosphodiester (GCGTTUTTTGCT; sugars from the 5' end d5 [αg]2 d5, all phosphodiester, methylation of C not given here) | 53.6 °C | +4.2 °C
